From PMC2841005 (Developmental and comparative immunology, 2010)

Assays:
Type in all cases: cell-based
[1] = system: Gram-negative and Gram-positive bacterial strains; experiment: Antibacterial activity against the panel of strains, broth micro-dilution assay
bacteria = experiment: Antibacterial test of the first synthetic 27-residue repeat peptide; conditions: data not shown
E. coli O157:H7 = experiment: MIC, broth micro-dilution assay

Sequence	Antibacterial activity against the bacterial strains tested (in words) [1]	Killing of bacteria (in words) (bacteria)	Activity against E. coli O157:H7 (in words) (E. coli O157:H7)
ESGNEPLWLYQGDNIPKAPSTAEHPFLPSIIDDVKFNPDRRYA [LP2A]	did not affect the bacterial growth	–	–
ESGNEPLWLYQGDNIPKAPSTAEHPFLPSIIDDVKFNPDRRYAR [LP2]	did not exhibit antimicrobial activity	–	–
RSVETLASQEHLSSLPMDSQETLLRGT	–	did not kill any bacteria	–
SLGTPDHYHGGRHSISRGSQSTGPTHPGYNRRNA [LP3A]	inactive	–	inactive
SLGTPDHYHGGRHSISRGSQSTGPTHPGYNRRNAR [LP3]	active against bacteria	–	low activity
SVETLASQEHLSSLPMDSQETLLRGT [LP4A]	inactive	–	–
SVETLASQEHLSSLPMDSQETLLRGTR [LP4]	no activity	–	–
